US20240059740A1, “CYCLIC PEPTIDES AND USES THEREOF” (PRE[…] INC., priority 2020, published 2024)

Assays:
recombinant MMP-2 = biological target: T1, recombinant MMP-2 (Homo sapiens, UniProt P08253); assay: MMP-2 Inhibitor Screening Assay Kit (colorimetric); format: biochemical; conditions: lower value = higher inhibitory activity
T1 construct: purchased ab139446
T1 sequence (P08253 110-660): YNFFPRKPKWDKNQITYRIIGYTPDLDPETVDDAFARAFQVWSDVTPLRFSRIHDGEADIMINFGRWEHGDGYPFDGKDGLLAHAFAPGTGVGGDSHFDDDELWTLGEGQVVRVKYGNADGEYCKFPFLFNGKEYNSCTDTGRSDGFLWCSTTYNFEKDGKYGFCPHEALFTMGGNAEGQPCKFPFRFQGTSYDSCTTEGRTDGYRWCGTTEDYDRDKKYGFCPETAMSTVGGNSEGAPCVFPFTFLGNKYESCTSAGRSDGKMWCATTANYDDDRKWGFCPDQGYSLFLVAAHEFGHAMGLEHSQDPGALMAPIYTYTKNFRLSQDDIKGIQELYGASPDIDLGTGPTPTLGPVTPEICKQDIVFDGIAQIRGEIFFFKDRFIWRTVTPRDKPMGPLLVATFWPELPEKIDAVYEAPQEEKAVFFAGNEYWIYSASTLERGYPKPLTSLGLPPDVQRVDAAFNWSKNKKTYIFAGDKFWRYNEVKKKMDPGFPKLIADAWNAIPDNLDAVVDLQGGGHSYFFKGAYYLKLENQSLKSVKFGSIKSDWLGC
Method: MMP-2 is an important target for inhibitor screening due to its involvement in cancer growth, angiogenesis, and metastasis. The MMP-2 screening assay was carried out with a commercially available MMP-2 Inhibitor Screening Assay Kit (Colorimetric, Catalog: ab139446) based on the manufacturers protocol. This assay is based on quantification of recombinant MMP-2 activity using a colorimetric assay (MMP-2 degrades a chromogenic substrate). The assay provides NNGH (N-isobutyl-N-(4-methoxyphenylsulfonyl) glycyl hydroxamic acid), a small molecule inhibitor, as a positive control (NNGH). […] Each determination was run in duplicate.
% Inhibition rate=(Vinhibitor/Vcontrol)×100
Briefly, MMP Substrate and MMP Inhibitor were warmed to room temperature to thaw DMSO. MMP Inhibitor (NNGH), MMP-2 substrate and MMP-2 enzyme were diluted with assay buffer to required concentration. 20 μL of MMP-2 enzyme and MMP-2 inhibitor (peptides, Chlorotoxin and NNGH) was added, then 50 μL of assay buffer was added and the reaction mixture incubated at 37° C. for 1 h. After incubation, 10 μL of MMP Substrate was added to start reaction. The reactions were continuously read at 412 nm in a microplate reader. Data was recorded at 1 min. time intervals for 10 to 20 min. The data as was plotted as optical density (OD) versus time for each sample. The reaction velocity (V) was obtained in OD/min: determine the slope of a line fit to the linear portion of the data plot using an appropriate routine. Then using the equation above the inhibitor % activity remaining was calculated. The control was without inhibitor.

U87 cells = assay: BME cell invasion assay, U87; format: cell-based, human; conditions: 1 μM, 24 h
Method: (§1) To assess whether the ability of SEQ ID NO.1 to inhibit MMP-2 activity and, to a lesser extent, reduce the production of matrix proteinases and downregulate the expression of EMT markers, was of functional consequence in reducing the invasiveness of the GBM cells, the ability of the peptide was tested at the concentrations of 1, 10 and 100 μM (none of which are toxic to cells) to inhibit invasion of the GBM cells through a basement membrane. This assay, described in more detail below, is an in vitro surrogate for measurement of the in vivo invasion by tumour cells of their environment.
(§2) The cell invasion assay employs a simplified Boyden chamber-like design that consists of two chambers separated by a filter (an 8 μm polycarbonate (PC) membrane) coated with basement membrane or different extracellular matrix components. The cell suspension is placed in the top chamber and incubated in the presence of test media containing specific chemo-attractants in the bottom chamber. Cells migrate from the top chamber to the bottom of the filter by degrading the coating over the filter pores. Detection of cell invasion is quantified using Calcein AM. Cell dissociation/Calcein AM solution is placed in the bottom chamber to dissociate the migrating cells from the filter. Calcein AM is internalized by the cells, and intracellular-esterases cleave the aceto-methylester (AM) moiety. Free Calcein fluoresces brightly and is used to quantitate the number of cells that have invaded or migrated by comparison with a standard curve (In Vitro Technologies Pty Ltd, (https://lifescience.invitro.com.au/brands/r-and-d-systems/).
(§3) The filter was coated with PathClear® growth factor reduced BME. The selected peptides were applied to the cells in both upper and lower wells to make sure the concentration of peptides were the same and the chemoattractant was serum at a concentration of 2% (for adherent U87 & U251 cells) or growth factor mix required in the medium (for non- adherent, 081024 oncospheres).
(§4) Cell invasion was determined using CultureCoat® 96 Well Medium BME Cell Invasion assay. Briefly, the cells were pre-starved 24 h before harvest. Then seeding 25,000 per well of cell in the upper chamber with serum free medium together different concentration of peptide. The bottom chamber also added different concentration of peptides with 2% (V/V) serum for GBM adherent cells or growth factor mix for neurosphere cells as chemoattractant. After 24 h incubation, the invading cells were measured by Calcein AM and calculated based on standard curve.
(§5) The results are shown in Table 12, the results are expressed as % inhibition.

U251 cells = assay: BME cell invasion assay, U251; format: cell-based, human; conditions: 1 μM, 24 h
Method: as §1, §2, §3, §4, §5

081024 cells = assay: BME cell invasion assay, 081024; format: cell-based, human; conditions: 1 μM, 24 h
Method: as §1, §2, §3, §4, §5

Compound	remaining activity (recombinant MMP-2; 1.3 μM) [%]	remaining activity (recombinant MMP-2; 1 μM, 1 h preincubation at 37° C.) [%]	Invasion Inhibition Index (%) (U87 cells)	Invasion Inhibition Index (%) (U251 cells)	Invasion Inhibition Index (%) (081024 cells)
COc1ccc(S(=O)(=O)N(CC(=O)NO)CC(C)C)cc1 [NNGH, N-isobutyl-N-(4-methoxyphenylsulfonyl) glycyl hydroxamic acid, reference compound]	2.29	–	–	–	–
Chlorotoxin [reference compound]	–	67.94	39.5	28.50	45.0
